Publication PMC12045974, “T cell toxicity induced by tigecycline binding to the mitochondrial ribosome” (Nature Communications, 2025)
Several values for one entry are separate records, joined by “and”; a condition that tells them apart may be missing. Identical values can stand only once.

How the values were obtained:
HeLa cells = test: Cell viability assay (CCK-8), HeLa cells; format: cell-based; details: for cell vialibity normalized to Vehicle (DMSO): in % (unit assumed)
Method: (§1) Cells were seeded in 96-well plates ranging from 2000 to 15,000 cells per well depending on different cell lines and treated with antibiotics in serial dilutions for 72 h (120 h for the preliminary assays) in a humidified incubator (37 °C, 5% CO2) in 100 μl medium (DMEM with 10% FBS, 2.05 mM L-glutamine (Sigma) for Hek293 and Hela; RPMI-1640 with 10% FBS, 2.05 mM L-glutamine (Sigma), and 55 μM 2-ME (Gibco) for Jurkat T cells and PBMCs). Based on preliminary tests, the number of cells per well was optimized to 2000 for Hela and Hek293, 6000 for Jurkat T cells, and 15,000 for PBMCs. The stocks of antibiotics were prepared by dissolving in DMSO. As control, the same amount of DMSO was added to the non-treated groups. Serial drug dilutions were prepared in the corresponding medium to provide a total of 9 concentrations up to 300 μM for tetracyclines and up to 900 μM for additional bacterial protein synthesis inhibitors. After drug treatment, 10% CCK-8 (Cell Counting Kit-8, Sigma Aldrich) (10 μl per well) of the total volume was added to the cells and incubated for 1–4 h depending on cell lines (1 h for Hela and Hek293; 3 h for Jurkat T cells; 4 h for PBMCs) before the evaluation of the effect of antibiotics on cell viability. […] Results were visually confirmed under the light microscope. Each treatment was performed in technical repeats. Dose-response curves were plotted, mean ± SEM was shown, and half maximal inhibitory concentration (IC50) values were calculated in GraphPad Prism.

Hek293 cells = test: Cell viability assay (CCK-8), Hek293 cells; format: cell-based, human; details: in % (unit assumed)
Method: as §1

Jurkat T cells = test: Cell viability assay (CCK-8), Jurkat T cells; format: cell-based, human; details: for cell vialibity normalized to Vehicle (DMSO): in % (unit assumed)
Method: as §1

[1] = test system: mitochondrial translation in CD4+ and CD8+ T cells; test: Mito-FUNCAT-FACS assay of mitochondrial translation on activated T cells; format: cell-based, human; details: per PBMC donor, listed as Pos ctrl
Method: Thawed PBMCs were washed with RPMI ( + 10% FBS, 2.05 mM L-glutamine (Sigma), and 55 μM 2-ME (Gibco)) before resting at 37 °C (5% CO2) for 30 min. After counting, cells were resuspended in FACS buffer at a density of 5 × 10^7 cells/ml. T cells were isolated using EasySep™ Human T Cell Isolation Kit (Stemcell Technologies). Purified T cells were counted and 85,000 cells per well seeded onto 96-well U-bottom plates with/without Human T-Activator CD3/CD28 beads (Invitrogen) at a 1:2.8 cell:bead ratio and 10 ng/ml IL-2 (Proteintech) in RPMI-1640 ( + 10% FBS, 2.05 mM L-glutamine (Sigma), and 55 μM 2-ME (Gibco)) for 48 h. To assess mitochondrial translation, activated T cells were washed twice with methionine/cysteine/pyruvate-free DMEM and incubated in methionine-depletion medium (DMEM supplemented with 10% dialyzed FBS, 1× GlutaMAX, 1× sodium pyruvate, and 0.2 mM L-cystine) for 30 min at 37 °C. To inhibit cytosolic translation, anisomycin (100 μg/mL) was added to the medium. For mitochondrial translation inhibition, 100 µg/mL chloramphenicol (309 μM, positive control) or tigecycline (2.5−10 μM) were added to the medium. Cells were then labeled with 50 μM L-homopropargylglycine (HPG) for 3 h at 37 °C, during which time the medium still contained antibiotics.
Following HPG labeling, cells were collected and stained with surface markers (CD4, CD8). Cells were pre-permeabilized with 0.005% digitonin in mitochondria-protective buffer (10 mM HEPES/KOH, 10 mM NaCl, 5 mM MgCl2, 300 mM sucrose, pH 7.5) for 3 min, fixed with 4% paraformaldehyde for 10 min, and fully permeabilized with 0.25% Triton X-100 for 5 min. After blocking with 5% BSA for 10 min, incorporated HPG was detected via copper-catalyzed cycloaddition using 0.05 μM Alexa Fluor 488 picolyl azide (Click-iT™ Plus Alexa Fluor™ 488 Picolyl Azide Toolkit, Gibco) for 30 min at room temperature. Subsequently, the reaction cocktail was removed and cells resuspended in FACS buffer. Flow cytometry was carried out on a BD Celesta (BD Biosciences) and analyzed in FlowJo (TreeStar). Data are presented as fold change relative to negative controls.

## C[C@H]1c2cccc(O)c2C(=O)C2=C(O)[C@]3(O)C(=O)C(C(N)=O)=C(O)[C@@H](N(C)C)[C@@H]3[C@@H](O)[C@@H]21 [DOX]
HeLa cells; Hela, dose 0.137174 μM
  cell vialibity normalized to Vehicle (DMSO): 99.8907
HeLa cells; Hela, dose 0.411523 μM
  cell vialibity normalized to Vehicle (DMSO): 100.467 and 99.0837
HeLa cells; Hela, dose 1.23457 μM
  cell vialibity normalized to Vehicle (DMSO): 99.4691 and 99.9582
HeLa cells; Hela, dose 3.7037 μM
  cell vialibity normalized to Vehicle (DMSO): 100.07 and 93.5237
HeLa cells; Hela, dose 11.1111 μM
  cell vialibity normalized to Vehicle (DMSO): 94.9721 and 92.1866
HeLa cells; Hela, dose 33.3333 μM
  cell vialibity normalized to Vehicle (DMSO): 96.9079 and 96.5877
HeLa cells; Hela, dose 100 μM
  cell vialibity normalized to Vehicle (DMSO): 97.8134 and 89.7632
HeLa cells; Hela, dose 300 μM
  cell vialibity normalized to Vehicle (DMSO): 79.6379 and 78.468
HeLa cells; Hela, dose 900 μM
  cell vialibity normalized to Vehicle (DMSO): 4.838 and 4.476
Hek293 cells; HEK293, dose 0.137174 μM
  cell vialibity normalized to Vehicle (DMSO): 97.7577 and 100.716
Hek293 cells; HEK293, dose 0.411523 μM
  cell vialibity normalized to Vehicle (DMSO): 94.3943 and 94.2074
Hek293 cells; HEK293, dose 1.23457 μM
  cell vialibity normalized to Vehicle (DMSO): 85.067 and 89.3024
Hek293 cells; HEK293, dose 3.7037 μM
  cell vialibity normalized to Vehicle (DMSO): 85.4718 and 85.9078
Hek293 cells; HEK293, dose 11.1111 μM
  cell vialibity normalized to Vehicle (DMSO): 79.6792 and 82.0461
Hek293 cells; HEK293, dose 33.3333 μM
  cell vialibity normalized to Vehicle (DMSO): 56.1352 and 52.9274
Hek293 cells; HEK293, dose 100 μM
  cell vialibity normalized to Vehicle (DMSO): 25.8642 and 25.3348
Hek293 cells; HEK293, dose 300 μM
  cell vialibity normalized to Vehicle (DMSO): 21.3952 and 21.8001
Hek293 cells; HEK293, dose 900 μM
  cell vialibity normalized to Vehicle (DMSO): 5.254 and 4.351
Jurkat T cells; Jurkat, dose 0.137174 μM
  cell vialibity normalized to Vehicle (DMSO): 94.1176 and 108.66
Jurkat T cells; Jurkat, dose 0.411523 μM
  cell vialibity normalized to Vehicle (DMSO): 95.2614 and 97.0588
Jurkat T cells; Jurkat, dose 1.23457 μM
  cell vialibity normalized to Vehicle (DMSO): 97.7941 and 96.1601
Jurkat T cells; Jurkat, dose 3.7037 μM
  cell vialibity normalized to Vehicle (DMSO): 99.2647 and 106.127
Jurkat T cells; Jurkat, dose 11.1111 μM
  cell vialibity normalized to Vehicle (DMSO): 82.9248 and 78.6765
Jurkat T cells; Jurkat, dose 33.3333 μM
  cell vialibity normalized to Vehicle (DMSO): 10.049 and 10.3758
Jurkat T cells; Jurkat, dose 100 μM
  cell vialibity normalized to Vehicle (DMSO): 2.696 and 3.35

## O=C(N[C@H](CO)[C@H](O)c1ccc([N+](=O)[O-])cc1)C(Cl)Cl [Chloramphenicol, chloramphenicol]
HeLa cells; Hela 3d, dose 1 μM
  cell vialibity normalized to Vehicle (DMSO): 115.472 and 112.907 and 109.149 and 106.395 and 107.336
HeLa cells; Hela 3d, dose 5 μM
  cell vialibity normalized to Vehicle (DMSO): 99.7977 and 98.9686 and 95.4348 and 95.1889 and 93.3131
HeLa cells; Hela 3d, dose 10 μM
  cell vialibity normalized to Vehicle (DMSO): 85.1565 and 78.1239 and 77.2387 and 77.1403 and 78.8686
HeLa cells; Hela 3d, dose 100 μM
  cell vialibity normalized to Vehicle (DMSO): 10.3486 and 10.3064 and 10.2994 and 10.5805
HeLa cells; Hela 5d, dose 1 μM
  cell vialibity normalized to Vehicle (DMSO): 101.268 and 103.029 and 103.952 and 106.316 and 104.379
HeLa cells; Hela 5d, dose 5 μM
  cell vialibity normalized to Vehicle (DMSO): 96.435 and 103.217 and 108.966 and 107.207 and 102.082
HeLa cells; Hela 5d, dose 10 μM
  cell vialibity normalized to Vehicle (DMSO): 98.7408 and 101.357 and 94.3137 and 101.415 and 97.4373
HeLa cells; Hela 5d, dose 50 μM
  cell vialibity normalized to Vehicle (DMSO): 38.8993 and 53.367 and 28.3728 and 27.4352 and 29.5718
HeLa cells; Hela 5d, dose 100 μM
  cell vialibity normalized to Vehicle (DMSO): 5.6014 and 6.201 and 5.26 and 4.947 and 5.042
HeLa cells; Homo sapiens, 120 h, HeLa, after 5 days, read-out: IC50 (cell survival)
  IC50: 41.7 µM
[1]; CD4, positive control 309 μM
  mitochondrial translation (fold change relative to negative control): 0.3672 and 0.3419 and 0.3517 and 0.3014
[1]; CD8, positive control 309 μM
  mitochondrial translation (fold change relative to negative control): 0.3783 and 0.3616 and 0.3857 and 0.2719
Jurkat T cells; Homo sapiens, 120 h, Jurkat T cells, after 5 days, read-out: IC50 (cell survival)
  IC50: 25.9 µM
Jurkat T cells; Jurkat 3d, dose 1 μM
  cell vialibity normalized to Vehicle (DMSO): 91.6279 and 94.5323 and 104.434 and 103.886 and 105.55
Jurkat T cells; Jurkat 3d, dose 5 μM
  cell vialibity normalized to Vehicle (DMSO): 74.0465 and 84.1447 and 84.7132 and 88.5271 and 87.2868
Jurkat T cells; Jurkat 3d, dose 10 μM
  cell vialibity normalized to Vehicle (DMSO): 63.1628 and 61.0232 and 47.7623 and 47.907 and 61.2196
Jurkat T cells; Jurkat 3d, dose 50 μM
  cell vialibity normalized to Vehicle (DMSO): 13.1266 and 12.4444 and 12.0827 and 12.6408 and 12.4548
Jurkat T cells; Jurkat 3d, dose 100 μM
  cell vialibity normalized to Vehicle (DMSO): 11.7933 and 11.4419 and 11.2455 and 11.1111 and 11.3282
Jurkat T cells; Jurkat 5d, dose 1 μM
  cell vialibity normalized to Vehicle (DMSO): 106.953 and 119.838 and 129.235 and 117.806 and 137.373
Jurkat T cells; Jurkat 5d, dose 5 μM
  cell vialibity normalized to Vehicle (DMSO): 116.039 and 104.909 and 120.616 and 122.485 and 146.087
Jurkat T cells; Jurkat 5d, dose 10 μM
  cell vialibity normalized to Vehicle (DMSO): 103.365 and 68.172 and 100.846 and 74.0691 and 124.665
Jurkat T cells; Jurkat 5d, dose 50 μM
  cell vialibity normalized to Vehicle (DMSO): 10.0745 and 7.603 and 8.334 and 7.062 and 9.025
Jurkat T cells; Jurkat 5d, dose 100 μM
  cell vialibity normalized to Vehicle (DMSO): 7.529 and 7.5694 and 7.36 and 6.913 and 8.592
